Measurements taken from patent publication US10259712B2, “Method of stabilizing compounds in water, water compositions thereby, and articles containing said water compositions” (priority 2015, dated 2019).
Read-outs that look alike come from different tables or passages of the source.

Experiments:
[1] = 58° C.
Method: Continuous experiments on the relative stabilization of hydrogen peroxide with different aqueous carriers, that is, types of water, including dioxytetrahydride gas-infused water, were carried out.
Very low concentrations of hydrogen peroxide (1.2 weight %) was added to the various aqueous carriers and measured for percent absorption by potassium permanganate titration.
The samples were tested on day 1, 20, 27 and 34. The tests were accelerated in aging when the temperature of each water sample was maintained at 58° C., approximating close to two years of stabilization.

[2] = initial 50 ppm
Text: Peroxide test strips supplied by Indigo® Instruments, Part #33815-P100 (referred as “peroxide test strips” or “test strip” herein) were used to determine the amount of hydrogen peroxide in either distilled water or in water infused with dioxytetrahydride gas (referred as “dioxytetrahydride gas-infused water” or “ultra-pure polarized water” herein). Test Strips are capable of measuring peroxide concentrations between 1 and 100 ppm (parts per million). A peroxide test strip was first submerged into 3% water solution of hydrogen peroxide obtained from a drugstore for home use.
A peroxide test strip was submerged into a clear PET-1 bottle (0.5 liter) of distilled water produced by Crystal Springs and another clear PET-1 bottle (0.5 liter) of dioxytetrahydride gas-infused water manufactured by AquaNew, LLC, Sarasota, Fla., respectively. The water produced by AquaNew is highly purified resulting from at least six (6) stages of treatment to obtain on or about 0.3 ppm of Total Dissolved Solids (pharmaceutical-grade water). […] Ten (10) drops of peroxide were added into each sample bottle and a test strip was dipped into each bottle and each bottle was immediately recapped. […] Both bottles with closures were left on a shelf in open light conditions under climate controlled conditions with no direct sunlight.
After two weeks, a test strip was dipped into each bottle and the bottle was immediately recapped. […] The two bottles with closures were placed back onto the shelf.
After four (4) months, another test strip was dipped into each bottle and the bottles were immediately recapped.

[3] = Accelerated ageing of chlorine dioxide in aqueous carriers, 75 days at 50° C.; assay type: physicochemical
Method: A series of dilutions were set up and aged for 75 days at 50° C., (approximately two years of stability of this solution) that creates chlorine dioxide. A solution of chlorine dioxide at a concentration of 0.4 ppm was separately added to dioxytetrahydride gas-infused water and a second sample in tap water. The samples were aged for 75 days at 50° C. Prior to testing the concentration of chlorine dioxide of each sample, a control of chlorine dioxide at a concentration of 0.4 ppm in water was prepared. The concentration of chlorine dioxide measured in the two samples after aging, was 0.4 ppm for the dioxytetrahydride gas-infused water and 0.2 ppm for tap water.
The same protocol was performed on 0.2 ppm concentration of chlorine dioxide and the test results were 0.2 ppm for the dioxytetrahydride gas-infused water and 0.0 ppm in tap water.

[4] = in dioxytetrahydride gas-infused water, throughout the 34 days, initial 1.2 weight %

hydrogen peroxide concentration [1, 4] | percent absorption [1, 4] | hydrogen peroxide concentration ([1]; in tap water, day 20, initial 1.2%) | hydrogen peroxide concentration ([1]; in tap water, day 34, initial 1.2%) | peroxide concentration ([2]; in dioxytetrahydride gas-infused water, after four (4) months) | peroxide concentration ([2]; in dioxytetrahydride gas-infused water, after two weeks, clear PET-1 bottle on shelf in open light) | peroxide concentration ([2]; in distilled water, after four (4) months) | peroxide concentration ([2]; in distilled water, after two weeks, clear PET-1 bottle on shelf in open light) | SMILES | concentration of chlorine dioxide after aging ([3]; in dioxytetrahydride gas-infused water, initial 0.2 ppm) | concentration of chlorine dioxide after aging ([3]; in dioxytetrahydride gas-infused water, initial 0.4 ppm) | concentration of chlorine dioxide after aging ([3]; in tap water, initial 0.2 ppm) | concentration of chlorine dioxide after aging ([3]; in tap water, initial 0.4 ppm)
1.2% | ~100% | 0.4% | below 0.2% | 50 ppm | 50 ppm | 30 ppm | 30 ppm | OO [hydrogen peroxide] | – | – | – | –
– | – | – | – | – | – | – | – | [O][Cl+][O-] [chlorine dioxide] | 0.2 ppm | 0.4 ppm | 0.0 ppm | 0.2 ppm
